Values joined by “and” are separate entries in the source; they are usually repeats but may differ in a detail not shown here. Identical values can stand only once. Like-named read-outs stand apart in the source and are kept apart here.
Columns and labels:
BcChiA-E61A = assay: Literature Kd values from isothermal titration calorimetry, quoted for comparison; conditions not given in this article.; assay type: binding; conditions: read-out: Kd values in μM (SmChiB-E144Q, OfChtI-E148Q, BcChiA-E61A); cited from earlier work
Text: (§1) So far three chitinases, two belonging to family GH18 (ChiB from S. marcescens−SmChiB and a chitinase from the insect Ostrinia furnacalis−OfChtI) and one belonging to family GH19 (ChiA from moss species, Bryum coronatum−BcChiA) were studied in great detail for their binding properties using ITC[27][28][29]. […] The high binding affinities of the mutant E153A even for the lower chain CHOS like DP2 and DP3, indicates the probability of these CHOS getting transglycosylated at the substrate-binding cleft. […] Therefore, the exceptionally high binding affinities of the mutant E153A for CHOS with DP2−6 compared to any other GH18 or GH19 chitinases[27][28][29] (Table 3) might be crucial to facilitate the unprecedented hyper-TG activity by SpChiD.

SmChiB-E144Q = assay: as above; assay type: binding; conditions: read-out: Kd values in μM (SmChiB-E144Q, OfChtI-E148Q, BcChiA-E61A); cited from earlier work
Text: as §1

SpChiD-E153A [1] = target: SpChiD-E153A (Serratia proteamaculans, UniProt A8GFD6, E159A); assay: ITC binding of CHOS to E153A; conditions: ITC
Protocol: (§2) Calorimetric titrations were carried out at 13 °C with DP2–4 CHOS, and at 25 °C with DP5 and DP6 CHOS, using a MicroCal ITC200 System (Microcal, Northampton, MA, USA). Mutant E153A was extensively dialyzed against 20 mM potassium phosphate (pH 8.0) and the dialysate was used to make CHOS solutions to minimize the heat of dilution during titration. Protein solutions were passed through 0.2-μm filters and thoroughly degassed prior to use. […] Successive injections at 225-s intervals ensured that equilibrium was achieved before adding the next aliquot. The sample in the calorimeter cell was stirred at 260 rpm during titration. Blank titrations were also performed by injecting ligand alone into the buffer solution, which yielded insignificant heat of dilution values. The binding isotherms were analyzed using MicroCal Origin v7.0. Thermodynamic parameters such as binding stoichiometry (n), change in enthalpy (ΔH) and association constant (Ka) were obtained by nonlinear least-squares fitting of experimental data using the one-set-of-sites binding model. Free energy of binding (ΔG) and change in entropy (ΔS) were deduced from the Ka and ΔH values using the standard thermodynamic equation

SpChiD-E153A [2] = assay: ITC binding of CHOS to E153A; design: species or system Serratia proteamaculans; conditions: for binding affinity to E153A relative to the same ligand on SmChiB: times higher than SmChiB
Protocol: as §2

OfChtI-E148Q = conditions: catalytically-inactive mutant, cited from earlier work
SpChiD mutant E153A = assay: DSC ligand-induced thermal stability of E153A with CHOS DP2–6; assay type: binding, Serratia proteamaculans; conditions: for Tm Transition-I / Tm Transition-II: DSC, pH 8.0; for Tm Transition-I: E153A 0.5 mg/mL alone or pre-incubated 1 h with 1 mM ligand; for Tm Transition-II: E153A alone or pre-incubated 1 h with 1 mM ligand; for increment of Tm1 over E153A alone / increment of Tm2 over E153A alone: [Tm of E153A + (DP)n] − Tm of E153A alone; for increment of Tm1 over E153A alone: first transition; for increment of Tm2 over E153A alone: second transition
Protocol: DSC measurements were carried out on a MicroCal VP-DSC (MicroCal LLC, Northampton, MA, USA). SpChiD and mutant E153A were dialyzed against 20 mM potassium phosphate buffer, pH 8.0. The dialysate was used as the reference. Protein samples (0.5 mg/mL) were heated from 10–70 °C at a scan rate of 30°/h to assess the effect of ligand binding on thermal unfolding. Mutant E153A was pre-incubated for 1 h with 1 mM of each ligand (DP2–6) before scanning. Sample and reference solutions were degassed prior to scanning to eliminate bubbling effects. Baseline reproducibility was verified by multiple scans, and the reversibility of protein unfolding was monitored by scanning the sample twice. Buffer scans were subtracted from thermograms obtained in the presence or absence of CHOS before further analysis. Absolute and excess heat capacities were analyzed using a non-two-state fit of the thermogram in Origin v7.0.

Sequence of SpChiD-E153A (Serratia proteamaculans, UniProt A8GFD6, E159A) (A8GFD6 entry or part of it E159A): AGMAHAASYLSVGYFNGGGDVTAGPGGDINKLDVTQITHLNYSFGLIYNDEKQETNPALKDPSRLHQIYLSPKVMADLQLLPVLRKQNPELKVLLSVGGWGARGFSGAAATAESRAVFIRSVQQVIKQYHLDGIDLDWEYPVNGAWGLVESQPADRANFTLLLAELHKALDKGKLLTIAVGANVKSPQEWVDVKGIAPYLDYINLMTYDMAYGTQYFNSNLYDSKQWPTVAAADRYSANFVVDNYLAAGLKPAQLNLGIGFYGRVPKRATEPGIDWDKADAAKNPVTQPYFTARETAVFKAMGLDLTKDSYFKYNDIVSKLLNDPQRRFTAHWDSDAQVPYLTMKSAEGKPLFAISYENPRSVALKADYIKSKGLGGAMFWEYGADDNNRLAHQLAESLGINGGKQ

CC(=O)N[C@H]1[C@H](O[C@H]2[C@H](O)[C@@H](NC(C)=O)[C@H](O[C@H]3[C@H](O)[C@@H](NC(C)=O)C(O)O[C@@H]3CO)O[C@@H]2CO)O[C@H](CO)[C@@H](O[C@@H]2O[C@H](CO)[C@@H](O[C@@H]3O[C@H](CO)[C@@H](O)[C@H](O)[C@H]3NC(C)=O)[C@H](O)[C@H]2NC(C)=O)[C@@H]1O (some centres unmarked) [DP5, (GlcNAc)5, penta-N-acetylchitopentaose]
Kd (BcChiA-E61A): 1.8 ± 0.3 µM | Kd (SmChiB-E144Q): 0.67 ± 0.2 µM

CC(=O)N[C@H]1[C@H](O[C@H]2[C@H](O)[C@@H](NC(C)=O)C(O)O[C@@H]2CO)O[C@H](CO)[C@@H](O[C@@H]2O[C@H](CO)[C@@H](O)[C@H](O)[C@H]2NC(C)=O)[C@@H]1O (some centres unmarked) [DP3, (GlcNAc)3, N,N',N''-triacetylchitotriose]
Kd (BcChiA-E61A): 230 ± 20 µM | Kd (SmChiB-E144Q): 327 ± 22 µM

CC(=O)N[C@H]1[C@H](O[C@H]2[C@H](O)[C@@H](NC(C)=O)C(O)O[C@@H]2CO)O[C@H](CO)[C@@H](O[C@@H]2O[C@H](CO)[C@@H](O[C@@H]3O[C@H](CO)[C@@H](O)[C@H](O)[C@H]3NC(C)=O)[C@H](O)[C@H]2NC(C)=O)[C@@H]1O (some centres unmarked) [DP4, (GlcNAc)4, tetra-N-acetylchitotetraose]
Kd (BcChiA-E61A): 16 ± 1 µM | Kd (SmChiB-E144Q): 2.7 ± 0.19 µM

CC(=O)N[C@H]1[C@H](O[C@H]2[C@H](O)[C@@H](NC(C)=O)C(O)O[C@@H]2CO)O[C@H](CO)[C@@H](O[C@@H]2O[C@H](CO)[C@@H](O)[C@H](O)[C@H]2NC(C)=O)[C@@H]1O (some centres unmarked) [DP3]
n (binding stoichiometry) (SpChiD-E153A [1]; 13 °C): 0.84 and 0.839 ± 0.0641 | ΔH° (SpChiD-E153A [1]; 13 °C): -1.837 ± 0.186 kcal/mol | ΔS° (SpChiD-E153A [1]; 13 °C): 14.9 cal.mol^−1.deg^−1 | −TΔS (SpChiD-E153A [1]; 13 °C): 4.26 kcal/mol | −ΔG° (SpChiD-E153A [1]; 13 °C): 6.1 kcal/mol | binding affinity to E153A relative to the same ligand on SmChiB (SpChiD-E153A [2]): 1,515 fold | Kd (OfChtI-E148Q; read-out: Kd1 to OfChtI-E148Q): 76900 nM | Kd (OfChtI-E148Q; read-out: Kd2 to OfChtI-E148Q): 284000 nM | Tm Transition-I (SpChiD mutant E153A): 50.20 ± 0.47 °C | Tm Transition-II (SpChiD mutant E153A): 54.30 ± 0.043 °C

CC(=O)N[C@H]1[C@H](O[C@H]2[C@H](O)[C@@H](NC(C)=O)[C@H](O[C@H]3[C@H](O)[C@@H](NC(C)=O)C(O)O[C@@H]3CO)O[C@@H]2CO)O[C@H](CO)[C@@H](O[C@@H]2O[C@H](CO)[C@@H](O[C@@H]3O[C@H](CO)[C@@H](O)[C@H](O)[C@H]3NC(C)=O)[C@H](O)[C@H]2NC(C)=O)[C@@H]1O (some centres unmarked) [DP5]
n (binding stoichiometry) (SpChiD-E153A [1]; 25 °C): 1.09 and 1.09 ± 0.00966 | ΔH° (SpChiD-E153A [1]; 25 °C): 3.530 ± 0.0468 kcal/mol | ΔS° (SpChiD-E153A [1]; 25 °C): 38.7 cal.mol^−1.deg^−1 | −TΔS (SpChiD-E153A [1]; 25 °C): 11.53 kcal/mol | −ΔG° (SpChiD-E153A [1]; 25 °C): 8 kcal/mol | binding affinity to E153A relative to the same ligand on SmChiB (SpChiD-E153A [2]): 52 fold | Kd (OfChtI-E148Q; read-out: Kd to OfChtI-E148Q): 2000 ± 200 nM | Tm Transition-I (SpChiD mutant E153A): 56.09 ± 0.30 °C | Tm Transition-II (SpChiD mutant E153A): 59.30 ± 0.063 °C | increment of Tm1 over E153A alone (SpChiD mutant E153A): 10.7 °C | increment of Tm2 over E153A alone (SpChiD mutant E153A): 11.2 °C

CC(=O)N[C@H]1[C@H](O[C@H]2[C@H](O)[C@@H](NC(C)=O)[C@H](O[C@H]3[C@H](O)[C@@H](NC(C)=O)C(O)O[C@@H]3CO)O[C@@H]2CO)O[C@H](CO)[C@@H](O[C@@H]2O[C@H](CO)[C@@H](O[C@@H]3O[C@H](CO)[C@@H](O[C@@H]4O[C@H](CO)[C@@H](O)[C@H](O)[C@H]4NC(C)=O)[C@H](O)[C@H]3NC(C)=O)[C@H](O)[C@H]2NC(C)=O)[C@@H]1O (some centres unmarked) [DP6, chitohexaose]
n (binding stoichiometry) (SpChiD-E153A [1]; 25 °C): 1.58 and 1.58 ± 0.00962 | ΔH° (SpChiD-E153A [1]; 25 °C): 2.281 ± 0.0249 kcal/mol | ΔS° (SpChiD-E153A [1]; 25 °C): 36.3 cal.mol^−1.deg^−1 | −TΔS (SpChiD-E153A [1]; 25 °C): 10.81 kcal/mol | −ΔG° (SpChiD-E153A [1]; 25 °C): 8.53 kcal/mol | binding affinity to E153A relative to the same ligand on SmChiB (SpChiD-E153A [2]): 26 fold | Kd (OfChtI-E148Q; read-out: Kd to OfChtI-E148Q): 480 ± 90 nM | Tm Transition-I (SpChiD mutant E153A): 58.15 ± 0.19 °C | Tm Transition-II (SpChiD mutant E153A): 60.49 ± 0.055 °C | increment of Tm1 over E153A alone (SpChiD mutant E153A): 12.8 °C | increment of Tm2 over E153A alone (SpChiD mutant E153A): 12.4 °C

CC(=O)N[C@H]1[C@H](O[C@H]2[C@H](O)[C@@H](NC(C)=O)C(O)O[C@@H]2CO)O[C@H](CO)[C@@H](O[C@@H]2O[C@H](CO)[C@@H](O[C@@H]3O[C@H](CO)[C@@H](O)[C@H](O)[C@H]3NC(C)=O)[C@H](O)[C@H]2NC(C)=O)[C@@H]1O (some centres unmarked) [DP4]
n (binding stoichiometry) (SpChiD-E153A [1]; 13 °C): 1.69 and 1.69 ± 0.071 | ΔH° (SpChiD-E153A [1]; 13 °C): 1.148 ± 0.0675 kcal/mol | ΔS° (SpChiD-E153A [1]; 13 °C): 27 cal.mol^−1.deg^−1 | −TΔS (SpChiD-E153A [1]; 13 °C): 7.72 kcal/mol | −ΔG° (SpChiD-E153A [1]; 13 °C): 6.6 kcal/mol | Kd (OfChtI-E148Q; read-out: Kd to OfChtI-E148Q): 11300 ± 1500 nM | Tm Transition-I (SpChiD mutant E153A): 48.88 ± 0.52 °C | Tm Transition-II (SpChiD mutant E153A): 54.10 ± 0.032 °C

CC(=O)N[C@H]1[C@H](O[C@H]2[C@H](O)[C@@H](NC(C)=O)[C@H](O[C@H]3[C@H](O)[C@@H](NC(C)=O)C(O)O[C@@H]3CO)O[C@@H]2CO)O[C@H](CO)[C@@H](O[C@@H]2O[C@H](CO)[C@@H](O[C@@H]3O[C@H](CO)[C@@H](O[C@@H]4O[C@H](CO)[C@@H](O)[C@H](O)[C@H]4NC(C)=O)[C@H](O)[C@H]3NC(C)=O)[C@H](O)[C@H]2NC(C)=O)[C@@H]1O (some centres unmarked) [DP6, (GlcNAc)6, hexa-N-acetylchitohexaose (chitohexaose)]
Kd (BcChiA-E61A): 0.77 ± 0.06 µM | Kd (SmChiB-E144Q): 0.13 ± 0.09 µM

CC(=O)N[C@H]1[C@H](O[C@H]2[C@H](O)[C@@H](NC(C)=O)C(O)O[C@@H]2CO)O[C@H](CO)[C@@H](O)[C@@H]1O (some centres unmarked) [DP2]
n (binding stoichiometry) (SpChiD-E153A [1]; 13 °C): 3.04 and 3.04 ± 0.307 | ΔH° (SpChiD-E153A [1]; 13 °C): -0.1506 ± 0.0261 kcal/mol | ΔS° (SpChiD-E153A [1]; 13 °C): 20.6 cal.mol^−1.deg^−1 | −TΔS (SpChiD-E153A [1]; 13 °C): 5.89 kcal/mol | −ΔG° (SpChiD-E153A [1]; 13 °C): 6.04 kcal/mol | binding affinity of DP2 to SpChiD relative to DP5 binding to SmChiB (SpChiD-E153A [2]; compared with DP5 on SmChiB (Kd = 0.67 μM)): ~3 times | Tm Transition-I (SpChiD mutant E153A): 48.78 ± 0.03 °C | Tm Transition-II (SpChiD mutant E153A): 53.16 ± 0.096 °C

From PMC4616163, “Inverse relationship between chitobiase and transglycosylation activities of chitinase-D from Serratia proteamaculans revealed by mutational and biophysical analyses” (Scientific Reports, 2015)
